Here are results for 2 molecules from patent US20200405752A1, “ANTITUMOR AGENT, ANTITUMOR EFFECT ENHANCER, AND ANTITUMOR KIT” (FUJIFILM Corporation, priority 2018, published 2020).

Usually viability stands for a per cent measure of how many cells are alive, often set against a control. The IC50 is the concentration needed to halve the response being measured.

Each structure is given as a SMILES string.

For this experiment, the system named is human ovarian cancer cell line SK-OV-3. Description: Cell viability (CellTiter Glo) of SK-OV-3 in combination with cisplatin or carboplatin. Particulars: for viability at 0.001 µM / viability at 0.003 µM / viability at 0.01 µM / viability at 0.03 µM / viability at 0.1 µM / viability at 0.3 µM / viability at 1 µM / viability at 3 µM / viability at 10 µM / IC50: Homo sapiens; for viability at 0.001 µM / viability at 0.003 µM / viability at 0.01 µM / viability at 0.03 µM / viability at 0.1 µM / viability at 0.3 µM / viability at 1 µM / viability at 3 µM / viability at 10 µM: SK-OV-3, 72 h, 3 days; for viability at 0.001 µM: test substance 1 nM; for viability at 0.003 µM: test substance 3 nM; for viability at 0.01 µM: test substance 10 nM; for viability at 0.03 µM: test substance 30 nM; for viability at 0.1 µM: test substance 100 nM; for viability at 0.3 µM: test substance 300 nM; for viability at 1 µM: test substance 1000 nM; for viability at 3 µM: test substance 3000 nM; for viability at 10 µM: test substance 10000 nM; for IC50: SK-OV-3, SK-OV-3; for CI: SK-OV-3 Cell. Format: cell-based. An excerpt: On the combinational effect of the embodiment of the invention, the results of evaluation using a combination index (CI) which is a quantitative index of the combinational effect are shown. The CI can be calculated by the following equation according to Cancer Research, 2010, Vol. 70, pp. 440 to 446.
That is, in a case where the drugs to be used in combination are drug 1 and drug 2, the CI at a certain drug concentration is
CI={(cell viability in case of using drug 1 and drug 2 in combination)/100}/{[(cell viability in case of using drug 1)/100]×[(cell viability in case of using drug 2)/100]}
Evaluation of antitumor activity against human ovarian cancer cell lines ES-2 and SK-OV-3 in combination with cisplatin and carboplatin
Furthermore, the antitumor activity against human ovarian cancer-derived cell lines ES-2 and SK-OV-3 in combination with cisplatin and carboplatin was evaluated in the same manner as in Test Example 1.
Gemcitabine, cisplatin, carboplatin, and methanesulfonate of Compound A were used as test substances.
Gemcitabine hydrochloride (manufactured by Plantex Co., Ltd.) dissolved in DMSO was used as gemcitabine. Cisplatin (Cat. #039-20091, manufactured by Wako Pure Chemical Industries, Ltd.) and carboplatin (Cat. #C2043, manufactured by Tokyo Chemical Industry Co., Ltd.), each of which dissolved in McCoy's 5a medium (Cat. #16600-082, manufactured by Thermo Fisher Scientific Inc.) supplemented with 1% serum (Cat. #10437-028, manufactured by Thermo Fisher Scientific Inc.), were used as cisplatin and carboplatin, respectively.
Human ovarian cancer cell line ES-2 and SK-OV-3 cells were subcultured in 10% serum-supplemented medium. During this test, all cell cultures were carried out in a CO2 incubator (set to 37° C. and 5% CO2, saturated with water vapor). ES-2 cells were diluted with 10% serum-supplemented medium to a cell density of 10000 cells/well/100 μL and SK-OV-3 cells were diluted with 10% serum-supplemented medium to a cell density of 15000 cells/well/100 μL, and then seeded on a 96-well plate. On the next day, the culture supernatant of each well was discarded, followed by washing twice with 150 μL of 1% serum-supplemented medium, and 100 μL of 1% serum-supplemented medium was added thereto, followed by culturing for 3 days.
The methanesulfonate of Compound A and gemcitabine were dissolved in DMSO to prepare 100 mmol/L DMSO solutions thereof. The thus-prepared DMSO solutions were diluted sequentially with DMSO to prepare DMSO solutions having a final treatment concentration of 1000-fold dilution. […] […] Compound A and gemcitabine were used with a maximum concentration of 10 μmol/L at a common ratio of 1/3 and 9 concentrations in combination with cisplatin or Carboplatin.
20 μL of Compound A or gemcitabine diluted with the cisplatin solution (60 μmol/L) or the Carboplatin solution (600 μmol/L) was added to each well. In addition, a group in which only a solvent containing no drug was added to wells in which cells were seeded (positive control), and a group in which only a solvent containing no drug was added to wells containing only a medium (negative control) were provided. All groups were set to n=3 well.
The cells were cultured for 3 days after the addition of the drug, and the cell viability was evaluated using a CellTiter Glo (registered trademark) Reagent (Cat. #G7570, manufactured by Promega Corporation) with the intracellular ATP level as an index. The concentration that inhibits cell viability by 50% (IC50 value) was calculated using XLFit software Ver.3 (registered trademark, manufactured by CTC Laboratory Systems Corporation).
The cell viability of each well was determined with the luminescence signal level of the negative control being 0% cell viability and the luminescence signal level of the positive control being 100% cell viability. The average value and standard deviation of the cell viability of each treatment group were calculated to prepare Tables 3 to 6.
(In general: In ATP-based viability assays light output follows the ATP content of the culture.)

Where [1] appears, read: SK-OV-3, with carboplatin 30 μmol/L.
Setting [2] is: SK-OV-3, with cisplatin 10 μmol/L.
[3] abbreviates: used in combination with cisplatin (10 μmol/L, Table 4).

Regarding `Nc1ccn([C@@H]2O[C@H](CO)[C@@H](O)C2(F)F)c(=O)n1` [Gemcitabine], under setting [1], the viability at 0.001 µM came out at 90%, the viability at 0.003 µM came to 90%, the viability at 0.01 µM was found to be 88% and the viability at 0.03 µM was found to be 86%. For the same molecule, under setting [1], the viability at 0.1 µM worked out at 83%, the viability at 0.3 µM was found to be 82%, the viability at 1 µM was determined as 81% and the viability at 3 µM was 80%. Besides, the viability at 10 µM under setting [1] turned out to be 76%. For the same molecule, under setting [2], the viability at 0.001 µM came to 82%, the viability at 0.003 µM was found to be 84%, the viability at 0.01 µM turned out to be 84% and the viability at 0.03 µM amounted to 83%. Also, under setting [2], the viability at 0.1 µM was found to be 83%, the viability at 0.3 µM amounted to 83%, the viability at 1 µM was determined as 79% and the viability at 3 µM is 59%. Also, the viability at 10 µM under setting [2] turned out to be 30%. The IC50 under setting [3] is 3800 nM. For the setting “SK-OV-3, used in combination with carboplatin (30 μmol/L, Table 5)”, the IC50 value entry is listed as “could not be calculated”. Besides, the CI (combination with Carboplatin) worked out at 1.0. Further, the CI (combination with Cisplatin) came out at 1.1.

In the case of `Nc1ccn([C@@H]2S[C@H](CO)[C@@H](O)[C@@H]2F)c(=O)n1` [Compound A, 1-(2-deoxy-2-fluoro-4-thio-β-D-arabinofuranosyl)cytosine], under setting [1], the viability at 0.001 µM came out at 90%, the viability at 0.003 µM worked out at 88%, the viability at 0.01 µM is 84% and the viability at 0.03 µM turned out to be 82%. Further, under setting [1], the viability at 0.1 µM was 80%, the viability at 0.3 µM worked out at 73%, the viability at 1 µM worked out at 41% and the viability at 3 µM is 20%. Also, the viability at 10 µM under setting [1] is 17%. Under setting [2], the viability at 0.001 µM is 83%, the viability at 0.003 µM was 82%, the viability at 0.01 µM was 81% and the viability at 0.03 µM came to 76%. Under setting [2], the viability at 0.1 µM was found to be 43%, the viability at 0.3 µM amounted to 14%, the viability at 1 µM came out at 11% and the viability at 3 µM amounted to 10%. For the same molecule, under setting [2], the viability at 10 µM was found to be 10%. Moreover, the IC50 (used in combination with carboplatin (30 μmol/L, Table 5)) worked out at 676 nM. Besides, under setting [3], the IC50 is 82.2 nM. For the same molecule, the CI (combination with Carboplatin) is 0.3. For the same molecule, the CI (combination with Cisplatin) is listed as 0.2.
